Test results as given in US20120245078A1, “MEANS AND METHODS FOR TREATING ISCHEMIC CONDITIONS” (priority 2009, published 2012).

Key:
[1] = system: occludin protein; test: Western blot and densitometry, occludin protein in cEND cells; assay type: cell-based, mouse; settings: for occludin protein, of control: GR-K426A-transfected cEND cells, after O2/glucose deprivation
Procedure: (C)-(D) The influence of O2/glucose-deprivation on the tight junction proteins occludin and claudin-5 could be shown by Western Blot: for this, cells were seeded on plastic cell culture flasks coated with collagen IV, treated as indicated and subjected to SDS-gel electrophoresis and Western blotting. A four-hour exposure to O2/glucose-deprivation caused a significant (P<0.05) decrease in occludin protein to 82±3% as compared to the untreated control. […]. Comparably, O2/glucose-deprivation caused a significant (P<0.001) decrease in claudin-5 protein to 61±4% as compared to the untreated control. […]. (C) Effects of proteasomal inhibition on occludin protein levels were examined by western blot analysis and densitometric analysis.

[2] = system: claudin-5 protein; test: Western blot and densitometry, claudin-5 protein in cEND cells; assay type: cell-based, mouse; settings: GR-K426A-transfected cEND cells, O2/glucose deprivation, presence of dexamethasone (K426A O2/glu depr+dex)
Procedure: (C)-(D) The influence of O2/glucose-deprivation on the tight junction proteins occludin and claudin-5 could be shown by Western Blot: for this, cells were seeded on plastic cell culture flasks coated with collagen IV, treated as indicated and subjected to SDS-gel electrophoresis and Western blotting. A four-hour exposure to O2/glucose-deprivation caused a significant (P<0.05) decrease in occludin protein to 82±3% as compared to the untreated control. […]. Comparably, O2/glucose-deprivation caused a significant (P<0.001) decrease in claudin-5 protein to 61±4% as compared to the untreated control. […].

[3] = system: GR protein; test: Western blot and densitometry, GR protein levels in cEND cells; assay type: cell-based, mouse; settings: normoxia, 100 nM dexamethasone 24 h (normox+dex)
Procedure: (A) GR protein levels after O2/glucose-deprivation.
(§1) Electrophoresis and immunoblotting, quantitative real-time RT-PCR, transendothelial electrical resistance measurements, transfection and luciferase assay were performed following standard procedures.

[4] = system: focal cerebral ischemia (tMCAO); settings: mice, 24 h after 60 min tMCAO; same doses; untreated control 48.3±16.7 or 56.6±10.0
Procedure: The intraluminal suture was left in situ for 60 minutes. Then animals were re-anesthetized and the occluding monofilament was withdrawn to allow reperfusion. […] Control mice (n=10) received 0.9% NaCl solution.
Control mice (n=10) received 0.9% NaCl solution.

[5] = system: traumatic brain injury (CCI); test: Controlled cortical impact (CCI) traumatic brain injury model; assay type: in vivo, mouse; settings: mice, 24 h after CCI; given 30 min after CCI; bortezomib 0.2 mg/kg, dexamethasone 10 mg/kg; scale 0 to 10
Procedure: As is known in the art, the neurological severity score is a measure of neurological impairment and is quantified on a scale from 0 (no impairment) to 10 (maximum impairment). When determining the neurological severity score, primarily the motoric activity is assessed (walking on a bar, false steps, search or foraging, respectively, behaviour and the like).

[6] = system: cEND monolayers; test: Transendothelial electrical resistance (TER) of cEND monolayers, normoxia or O2/glucose deprivation; assay type: cell-based, mouse; settings: GR-K426A-transfected cEND cells, after O2/glucose deprivation, without dexamethasone (K426A O2/glu depr)
Procedure: Growth medium (10% FCS) was changed after 5 days in culture to differentiation medium ([…], ±additions) and analysis of the TER was performed after O2/glucose-deprivation as indicated. […] Hek293 cells were maintained in DMEM, 10% FCS. […] We performed cell viability assays following standard procedures.
as §1

[7] = system: claudin-5; test: Real time RT-PCR, claudin-5 gene expression in cEND cells; assay type: cell-based, mouse; settings: introduction of GR-K426A
Procedure: (§2) Normox control (black bars), normox+dex (white bars), O2/glu depr (light grey bars), O2/glu depr+dex (dark grey bars).
as §1
(§3) At first, expression levels of genes encoding the tight junction proteins occludin, claudins-3, -5, -12 and the adherens junction protein, VE-cadherin, were assessed by real time RT-PCR (FIG. 2B).

[8] = system: VE-cadherin; test: Real time RT-PCR, VE-cadherin gene expression in cEND cells; assay type: cell-based, mouse; settings: introduction of GR-K426A
Procedure: as §2, §1, §3

## C[C@@H]1C[C@H]2[C@@H]3CCC4=CC(=O)C=C[C@]4(C)[C@@]3(F)[C@@H](O)C[C@]2(C)[C@@]1(O)C(=O)CO [dexamethasone]
[1]; dexamethasone (K426A O2/glu depr+dex)
  occludin protein, of control: 122±5%
[1]; normoxia, dexamethasone
  occludin protein content, of control: 120±7%
[2]
  claudin-5 protein level: 44±11%
[3]
  GR protein, of untreated cells: 66±2%

## CC(C)C[C@@H](NC(=O)[C@@H](Cc1ccccc1)NC(=O)c1cnccn1)B(O)O [bortezomib, [(1S)-3-methyl-1-[[(2R)-3-phenyl-2-(pyrazine-2-carbonylamino)propanoyl]amino]butyl]boronic acid]
[4]
  volume of Evan's blue extravasation (edema volume): no influence
[5]
  neurological severity score: does not lead to any statistically significant improvement

B1: GR-K426A: mutant murine glucocorticoid receptor, point mutation at lysine-426, resistant to proteasomal degradation, transfected into cEND cells (SEQ ID NOs: 3 and 4) (protein)
chain: MDSKESLAPPGRDEVPSSLLGRGRGSVMDLYKTLRGGATVKVSASSPSVAAASQADSKQQRILLDFSKGSASNAQQQQQQQQPQPDLSKAVSLSMGLYMGETETKVMGNDLGYPQQGQLGLSSGETDFRLLEESIANLNRSTSRPENPKSSTPAAGCATPTEKEFPQTHSDPSSEQQNRKSQPGTNGGSVKLYTTDQSTFDILQDLEFSAGSPGKETNESPWRSDLLIDENLLSPLAGEDDPFLLEGDVNEDCKPLILPDTKPKIQDTGDTILSSPSSVALPQVKTEKDDFIELCTPGVIKQEKLGPVYCQASFSGTNIIGNKMSAISVHGVSTSGGQMYHYDMNTASLSQQQDQKPVFNVIPPIPVGSENWNRCQGSGEDNLTSLGAMNFAGRSVFSNGYSSPGMRPDVSSPPSSSSTATGPPPALCLVCSDEASVCHYGVLTCGSCKVFFKRAVEGQHNYLCAGRNDCIIDKIRRKNCPACRYRKCLQAGMNLEARKTKKKIKGIQQATAGVSQDTSENANKTIVPAALPQLTPTLVSLLEVIEPEVLYAGYDSSVPDSAWRIMTTLNMLGGRQVIAAVKWAKAIPGFRNLHLDDQMTLLQYSWMFLMAFALGWRSYRQASGNLLCFAPDLIINEQRMTLPCMYDQCKHMLFISTELQRLQVSYEEYLCMKTLLLLSSVPKEGLKSQELFDEIRMTYIKELGKAIVKREGNSSQNWQRFYQLTKLLDSMHDVVENLLSYCFQTFLDKSMSIEFPEMLAEIITNQIPKYSNGNIKKLLFHQK
modifications: expressed in transfected cEND cells; mus musculus
[6]
  TER: 239+58 Ωcm^2
[7]
  claudin-5 gene expression level: not influenced
[8]
  VE-cadherin gene expression level: not influenced
[1]; without dexamethasone (K426A O2/glu depr)
  occludin protein, of control: 58±7%
